Test system: Beta vulgaris calli
Assay: DEX-inducible 35S-BnBBM-GR: shoot formation and callus-based transformation efficiency
Assay type: cell-based, Beta vulgaris (sugar beet)
Settings: BnBBM-GR with DEX-induction
Experimental: By applying the following method callus for Beta vulgaris (sugar beet) has been induced: Micropropagated shoots were used as starting material. Shoots were multiplied in medium containing MS salts, 30 g/l sucrose, 0.25 mg/l benzyladenine (BAP) and 10 g/l agar (pH 6.0). To induce friable callus, leaf explants were incubated for 7-8 weeks in media having MS salts, 15 g/l sucrose, 2 mg/l BAP, and 8 g/l agar (pH 6.0).
For Agrobacterium-mediated transformation friable calli were mounted in media containing MS salts, 30 g/l sucrose, 1 mg/l GA3, 1 mg/l TDZ, and 10 g/l agar (pH 6.0) and kept for 1 week in the dark at 24° C. Agrobacterium harbouring the vector of IPR232-pS-01 (FIG. 12) was grown in medium containing 5 g/l tryptone, 2.5 g/l yeast extract, 1 g/l NaCl, 5 g/l mannitol, 0.1 g/l MgSO4×7H2O, 0.25 g/l KH2PO4, 1 g/l glutamic acid (pH 7.0) supplemented with the appropriate antibiotics, at 28° C., for 24 h. […]
For quantification of transformation rate a) the inducible BnBBM system based on DEX/GR as described above as well as a constitutive overexpression of BnBBM have been tested on an amenable genotype and a recalcitrant genotype. […]

## C[C@@H]1C[C@H]2[C@@H]3CCC4=CC(=O)C=C[C@]4(C)[C@@]3(F)[C@@H](O)C[C@]2(C)[C@@]1(O)C(=O)CO [DEX, dexamethasone]
Amenable genotype
  transformation efficiency: around 70%
Recalcitrant genotype
  transformation efficiency: around 18%

— US12527270B2, “Promoting regeneration and transformation in plants” (KWS SAAT SE & CO. KGAA, priority 2020, dated 2026)
